Test results taken from the NIST ThermoML archive (doi:10.1021/je9009442).
Numbers after ± are expanded uncertainties.

Experiment: wn = mass fraction of the nth substance listed
Details: Liquid, inclined tube viscometer, w1 = 0.505

In the case of `FC(F)C(F)(F)F` [pentafluoroethane] + FCF, the kinematic viscosity (256.15 K) is reported as 1.72e-07 ± 1.5e-09 m2/s, the kinematic viscosity (258.15 K) is reported as 1.685e-07 ± 1.5e-09 m2/s and the kinematic viscosity (260.15 K) is reported as 1.652e-07 ± 1.5e-09 m2/s. For the same compound, the kinematic viscosity (262.15 K) was 1.619e-07 ± 1.4e-09 m2/s, the kinematic viscosity (264.15 K) was 1.587e-07 ± 1.4e-09 m2/s and the kinematic viscosity (266.15 K) was 1.556e-07 ± 1.4e-09 m2/s. For the same compound, the kinematic viscosity (268.15 K) was 1.526e-07 ± 1.3e-09 m2/s, the kinematic viscosity (270.15 K) was 1.497e-07 ± 1.3e-09 m2/s and the kinematic viscosity (272.15 K) was 1.468e-07 ± 1.3e-09 m2/s. For the same compound, the kinematic viscosity (274.15 K) was 1.44e-07 ± 1.3e-09 m2/s, the kinematic viscosity (276.15 K) was 1.413e-07 ± 1.2e-09 m2/s and the kinematic viscosity (278.15 K) was 1.386e-07 ± 1.2e-09 m2/s. It also gave a kinematic viscosity (280.15 K) of 1.36e-07 ± 1.2e-09 m2/s, a kinematic viscosity (282.15 K) of 1.335e-07 ± 1.2e-09 m2/s and a kinematic viscosity (284.15 K) of 1.31e-07 ± 1.2e-09 m2/s. For the same compound, the kinematic viscosity (286.15 K) was 1.285e-07 ± 1.1e-09 m2/s, the kinematic viscosity (288.15 K) was 1.262e-07 ± 1.1e-09 m2/s and the kinematic viscosity (290.15 K) was 1.238e-07 ± 1.1e-09 m2/s. It also gave a kinematic viscosity (292.15 K) of 1.215e-07 ± 1.1e-09 m2/s, a kinematic viscosity (294.15 K) of 1.193e-07 ± 1e-09 m2/s and a kinematic viscosity (296.15 K) of 1.171e-07 ± 1e-09 m2/s. The kinematic viscosity (298.15 K) was 1.15e-07 ± 1e-09 m2/s, the kinematic viscosity (300.15 K) was 1.129e-07 ± 1e-09 m2/s and the kinematic viscosity (302.15 K) was 1.108e-07 ± 1e-09 m2/s. The kinematic viscosity (304.15 K) was 1.088e-07 ± 1e-09 m2/s, the kinematic viscosity (306.15 K) was 1.068e-07 ± 9e-10 m2/s and the kinematic viscosity (308.15 K) was 1.048e-07 ± 9e-10 m2/s. For the same compound, the kinematic viscosity (310.15 K) was 1.029e-07 ± 9e-10 m2/s, the kinematic viscosity (312.15 K) was 1.01e-07 ± 9e-10 m2/s and the kinematic viscosity (314.15 K) was 9.92e-08 ± 9e-10 m2/s. The kinematic viscosity (316.15 K) was 9.73e-08 ± 9e-10 m2/s, the kinematic viscosity (318.15 K) was 9.55e-08 ± 8e-10 m2/s and the kinematic viscosity (320.15 K) was 9.38e-08 ± 8e-10 m2/s. The kinematic viscosity (322.15 K) was 9.2e-08 ± 8e-10 m2/s, the kinematic viscosity (324.15 K) was 9.03e-08 ± 8e-10 m2/s and the kinematic viscosity (326.15 K) was 8.86e-08 ± 8e-10 m2/s. For the same compound, the kinematic viscosity (328.15 K) was 8.7e-08 ± 8e-10 m2/s, the kinematic viscosity (330.15 K) was 8.53e-08 ± 8e-10 m2/s and the kinematic viscosity (332.15 K) was 8.37e-08 ± 7e-10 m2/s. It also gave a kinematic viscosity (334.15 K) of 8.21e-08 ± 7e-10 m2/s and a kinematic viscosity (336.15 K) of 8.06e-08 ± 7e-10 m2/s.
